The compounds below were run on SHIP enzyme (assay: In vitro SHIP enzyme assay (Assay 1), phosphate release by Malachite Green). Conditions: 10 ng enzyme/well, 100 μM inositol-1,3,4,5-tetrakisphosphate.
Format: biochemical
Protocol: (§1) Assay 1) In vitro testing in a SHIP enzyme assay. Test compounds were dissolved in a suitable solvent (e.g. EtOH, DMSO and others) and diluted into aqueous buffer (20 mM Tris HCl, pH 7.5 and 10 mM MgCl2). SHIP enzyme assays were performed in 96-well microtitre plates with 10 ng of enzyme/well in a total volume of 25 μL of 20 mM Tris HCl, pH 7.5 and 10 mM MgCl2. SHIP enzyme was incubated with test extracts (provided in solvent) or vehicle for 15 min at 23° C. before the addition of 100 μM inositol-1,3,4,5-tetrakisphosphate (Echelon Biosciences Inc, Salt Lake City, Utah). After 20 min at 37° C. and the amount of inorganic phosphate released assessed by the addition of Malachite Green reagent and absorbance measurement at 650 nm. Assay 2) Macrophage TNF-α production. J774.1a macrophage cells were treated with 10 μg/mL of test compound dissolved in solvent (e.g. cyclodextran) for 40 minutes prior to the addition of 100 ng/mL LPS. Culture supernatants were collected after 2 hr and 5 hr for TNF-α determination by ELISA. Assay 3) Macrophage TNF-α NO assay. J774.1a macrophage cells were treated with 10 μg/ml of test compound dissolved in solvent for 40 minutes prior to the addition of LPS. Culture supernatants were collected after 24 hr. for determination of NO concentration using the Griess reagent. Assay 4) Stimulation of mast cells by FcεRI crosslinking. Mast cells were pre-loaded overnight in BMMC medium lacking IL-3 with 0.1 μg/ml anti-DNP IgE (SPE-7, Sigma, Oakville, Ont). For calcium flux measurements, cells were incubated with 2 μM fura 2-acetoxymethyl ester (Molecular Probes, Eugene, Oreg.) in Tyrode's buffer at 23° C. for 45 min. Cells were then washed and incubated in the presence of the test compound 30 min prior to stimulation with the indicated concentration of DNP-human serum albumin (DNP-HSA). Calcium influx was monitored by spectrofluorometry as described previously. For analysis of intracellular signaling, cells were pre-loaded with anti-DNP IgE as above, pre-treated with the test compound for 30 min at 37° C. and stimulated with 20 ng/ml DNP-HSA for 5 min. Total cell lysates were then prepared and analyzed for phospho-PKB, phospho-p38^MAPK, phospho-MAPK, Grb-2 (Cell Signalling, Mississauga, Ont) and SHIP^6 by immunoblot analysis. Assay 5) Mouse acute cutaneous anaphylaxis model. 6-8 week old CD1 mice (University of British Columbia Animal Facility, Vancouver, BC) were sensitized to the hapten DNP by cutaneous application of 25 μL of 0.5% dinitrofluorobenzene (DNFB) (Sigma, Oakville, Ont) in acetone to the shaved abdomen of mice for two consecutive days. 24 hrs later, test substances (dissolved in 10 μL of 1:2 DMSO:MeOH) were painted on the right ear while the left ear received vehicle control. 30 min after drug application, DNFB was applied to both ears to induce mast cell degranulation. A 6 mm punch was taken from the ear and immediately frozen on dry ice for subsequent determination of neutrophil myeloperoxidase (MPO) activity. Assay 6) Mouse endotoxemia model. 6-8 week old C57B16 mice (VCHRI Mammalian Model of Human Disease Core Facility, Vancouver, BC) were orally administered the test compound 30 min prior to an IP injection of 2 mg/kg of LPS (E. Coli serotype 0111:B4, Sigma, Oakville, Ont). Blood was drawn 2 hrs later for determination of plasma TNFα by ELISA. Assay 7) In vitro Mulitple Myeloma (MM) assay. The ability of SHIP activators to reduce tumor cell survival was assessed in MM cell lines treated with the test compound. The lines OPM1, OPM2, MM.1S and RPMI 8226 were plated at a density of 1×10^5 cells/mL in 200 μL of medium with various concentrations of the test compound, and viable cell numbers were determined on day 3 and day 5 by trypan blue exclusion. The lines RPMI 8226 and U266 were plated at a density of 1×10^6 cells/mL in 250 μL of medium with various concentrations of the test compound. At day 4, the medium of each culture was replaced by fresh medium containing the same concentration of test compound. […]
For Assay 1: SHIP enzyme assay, desired activity in this document: key: a ‘+’ indicates a positive result for desired activity; a ‘−’ indicates a negative result for desired activity.
For Assay 2: Macrophage TNF-α production, desired activity in this document: key: a ‘+’ indicates a positive result for desired activity; a ‘−’ indicates a negative result for desired activity.
For Assay 3: Macrophage NO assay, desired activity in this document: key: a ‘+’ indicates a positive result for desired activity; a ‘−’ indicates a negative result for desired activity.

Compound	Assay 1: SHIP enzyme assay, desired activity
COC(=O)c1cc(O)c(O)c2c1[C@]1(C)CCC3C(C)(C)CCC[C@]3(C)[C@H]1C2 (stereo partly drawn)	+
CC1(C)CCC[C@@]2(C)C1CC[C@@]1(C)c3c(C(=O)O)cc(O)c(O)c3C[C@@H]12 (stereo partly drawn)	+
COC(=O)c1cc(O)c(O)c2c1[C@]1(C)CCC3C(C)(C)CCC[C@]3(C)[C@@H]1C2 (stereo partly drawn)	+
COC(=O)c1cc(O)c(O)c2c1[C@@]1(C)CCC3C(C)(C)CCC[C@]3(C)[C@H]1C2 (stereo partly drawn)	+
Cc1cc(O)c(O)c2c1[C@@]1(C)CCC3C(C)(C)CCC[C@]3(C)[C@H]1C2 (stereo partly drawn)	+
CCc1cc(O)c(O)c2c1[C@]1(C)CCC3C(C)(C)CCC[C@]3(C)[C@H]1C2 (stereo partly drawn) [Compound 18A]	+

What follows are compounds tested on J774.1a macrophage cells (assay: Macrophage TNF-α production (Assay 2)). Conditions: 10 μg/mL test compound, 100 ng/mL LPS, supernatants after 2 hr and 5 hr.
Format: cell-based
Protocol: as §1

Compound	Assay 2: Macrophage TNF-α production, desired activity
CC1(C)CCC[C@@]2(C)C1CC[C@@]1(C)c3c(C(=O)O)cc(O)c(O)c3C[C@@H]12 (stereo partly drawn)	+
CCc1cc(O)c(O)c2c1[C@]1(C)CCC3C(C)(C)CCC[C@]3(C)[C@H]1C2 (stereo partly drawn) [Compound 18A]	+
Cc1cc2c(cc1O)C[C@@H]1[C@@]3(C)CCCC(C)(C)[C@@H]3CC[C@@]21C [Compound 101]	+
CC(=O)Oc1cc(C)c2c(c1)C[C@H]1[C@@]2(C)CCC2C(C)(C)CCC[C@@]21C (stereo partly drawn) [Compound 102]	+
Cc1cc(OC(=O)C(N)CCCNC(=N)N)cc2c1[C@]1(C)CCC3C(C)(C)CCC[C@]3(C)[C@H]1C2 (stereo partly drawn) [Compound 105]	+
Cc1cc(OP(=O)(O)O)cc2c1[C@]1(C)CCC3C(C)(C)CCC[C@]3(C)[C@H]1C2 (stereo partly drawn) [Compound 109]	−
Cc1cc(OC(=O)C(CC(=O)O)NC(=O)CCC(=O)O)cc2c1[C@]1(C)CCC3C(C)(C)CCC[C@]3(C)[C@H]1C2 (stereo partly drawn) [Compound 114]	+
COc1cc(O)cc2c1[C@]1(C)CC[C@H]3C(C)(C)CCC[C@]3(C)[C@H]1C2 [Compound 117]	+
COc1ccc2c(c1O)C[C@@H]1[C@@]3(C)CCCC(C)(C)[C@@H]3CC[C@@]21C [Compound 118]	−
CC1(C)CCC[C@]2(C)[C@H]3Cc4cc(O)ccc4[C@]3(C)CC[C@@H]12 [Compound 121]	+
Cc1cc(O)c2c(c1)C[C@@H]1[C@@]3(C)CCCC(C)(C)[C@@H]3CC[C@@]21C [Compound 122]	−
Cc1cc(OC(=O)C(N)Cc2cnc[nH]2)cc2c1[C@]1(C)CCC3C(C)(C)CCC[C@]3(C)[C@H]1C2 (stereo partly drawn) [Compound 123]	+
Cc1cc(O)cc2c1[C@]1(C)CCC3C(C)(C)CCC[C@]3(C)[C@@H]1C2 (stereo partly drawn) [Compound 124]	+
Cc1cc(O)cc2c1[C@@]1(C)CCC3C(C)(C)CCC[C@]3(C)[C@H]1C2 (stereo partly drawn) [Compound 125]	+
COc1cc(C)c2c(c1O)C[C@@H]1[C@@]3(C)CCCC(C)(C)[C@@H]3CC[C@@]21C [Compound 129]	−

What follows are compounds tested on J774.1a macrophage cells (assay: Macrophage TNF-α NO assay (Assay 3), Griess reagent). Conditions: 10 μg/ml test compound, LPS, supernatants after 24 hr.
Format: cell-based
Protocol: as §1

Compound	Assay 3: Macrophage NO assay, desired activity
COC(=O)c1cc(O)c(O)c2c1[C@]1(C)CCC3C(C)(C)CCC[C@]3(C)[C@H]1C2 (stereo partly drawn)	+
CC1(C)CCC[C@@]2(C)C1CC[C@@]1(C)c3c(C(=O)O)cc(O)c(O)c3C[C@@H]12 (stereo partly drawn)	+
COC(=O)c1cc(O)c(O)c2c1[C@]1(C)CCC3C(C)(C)CCC[C@]3(C)[C@@H]1C2 (stereo partly drawn)	+
COC(=O)c1cc(O)c(O)c2c1[C@@]1(C)CCC3C(C)(C)CCC[C@]3(C)[C@H]1C2 (stereo partly drawn)	+
CCc1cc(O)c(O)c2c1[C@]1(C)CCC3C(C)(C)CCC[C@]3(C)[C@H]1C2 (stereo partly drawn) [Compound 18A]	+
Cc1cc2c(cc1O)C[C@@H]1[C@@]3(C)CCCC(C)(C)[C@@H]3CC[C@@]21C [Compound 101]	+
CC(=O)Oc1cc(C)c2c(c1)C[C@H]1[C@@]2(C)CCC2C(C)(C)CCC[C@@]21C (stereo partly drawn) [Compound 102]	+
Cc1cc(OC(=O)C(N)CCCNC(=N)N)cc2c1[C@]1(C)CCC3C(C)(C)CCC[C@]3(C)[C@H]1C2 (stereo partly drawn) [Compound 105]	+
Cc1cc(OP(=O)(O)O)cc2c1[C@]1(C)CCC3C(C)(C)CCC[C@]3(C)[C@H]1C2 (stereo partly drawn) [Compound 109]	+
Cc1cc(OC(=O)C(CC(=O)O)NC(=O)CCC(=O)O)cc2c1[C@]1(C)CCC3C(C)(C)CCC[C@]3(C)[C@H]1C2 (stereo partly drawn) [Compound 114]	+
COc1cc(O)cc2c1[C@]1(C)CC[C@H]3C(C)(C)CCC[C@]3(C)[C@H]1C2 [Compound 117]	+
COc1ccc2c(c1O)C[C@@H]1[C@@]3(C)CCCC(C)(C)[C@@H]3CC[C@@]21C [Compound 118]	+
CC1(C)CCC[C@]2(C)[C@H]3Cc4cc(O)ccc4[C@]3(C)CC[C@@H]12 [Compound 121]	+
Cc1cc(O)c2c(c1)C[C@@H]1[C@@]3(C)CCCC(C)(C)[C@@H]3CC[C@@]21C [Compound 122]	+
Cc1cc(OC(=O)C(N)Cc2cnc[nH]2)cc2c1[C@]1(C)CCC3C(C)(C)CCC[C@]3(C)[C@H]1C2 (stereo partly drawn) [Compound 123]	+
Cc1cc(O)cc2c1[C@]1(C)CCC3C(C)(C)CCC[C@]3(C)[C@@H]1C2 (stereo partly drawn) [Compound 124]	+
Cc1cc(O)cc2c1[C@@]1(C)CCC3C(C)(C)CCC[C@]3(C)[C@H]1C2 (stereo partly drawn) [Compound 125]	+
COc1cc(C)c2c(c1O)C[C@@H]1[C@@]3(C)CCCC(C)(C)[C@@H]3CC[C@@]21C [Compound 129]	+

These compounds were tested on Mast cells (assay: Stimulation of mast cells by FcεRI crosslinking (Assay 4)). Conditions: test compound 30 min prior to DNP-HSA.
Format: cell-based
Protocol: as §1, with “6-8 week old CD1 mice (University of British Columbia Animal Facility, Vancouver, BC) were sensitized to the hapten DNP by cutaneous application of 25 μL of 0.5% dinitrofluorobenzene (DNFB) (Sigma, Oakville, Ont) in acetone to the shaved abdomen of mice for two consecutive days. 24 hrs later, test substances (dissolved in 10 μL of 1:2 DMSO:MeOH) were painted on the right ear while the left ear received vehicle control. 30 min after drug application, DNFB was applied to both ears to induce mast cell degranulation. A 6 mm punch was taken from the ear and immediately frozen on dry ice for subsequent determination of neutrophil myeloperoxidase (MPO) activity. Assay 6) Mouse endotoxemia model. 6-8 week old C57B16 mice (VCHRI Mammalian Model of Human Disease Core Facility, Vancouver, BC) were orally administered the test compound 30 min prior to an IP injection of 2 mg/kg of LPS (E. Coli serotype 0111:B4, Sigma, Oakville, Ont). Blood was drawn 2 hrs later for determination of plasma TNFα by ELISA. Assay 7) In vitro Mulitple Myeloma (MM) assay.” left out, “exclusion.” for “exclusion. The lines RPMI 8226 and U266 were plated at a density of 1×10^6 cells/mL in 250 μL of medium with various concentrations of the test compound. At day 4, the medium of each culture was replaced by fresh medium containing the same concentration of test compound.”

Compound	Assay 4: Stimulation of mast cells by FcεRI crosslinking, desired activity
Cc1cc(O)cc2c1[C@]1(C)CCC3C(C)(C)CCC[C@]3(C)[C@@H]1C2 (stereo partly drawn) [Compound 124]	+
Cc1cc(O)cc2c1[C@@]1(C)CCC3C(C)(C)CCC[C@]3(C)[C@H]1C2 (stereo partly drawn) [Compound 125]	+

Each compound was assayed on plasma TNFα (assay: Mouse endotoxemia model (Assay 6), plasma TNFα by ELISA). Conditions: oral, 30 min prior to IP 2 mg/kg LPS, plasma TNFα 2 hrs later.
Format: in vivo, mice
Protocol: as §1, with “6-8 week old C57B16 mice (VCHRI Mammalian Model of Human Disease Core Facility, Vancouver, BC) were orally administered the test compound 30 min prior to an IP injection of 2 mg/kg of LPS (E. Coli serotype 0111:B4, Sigma, Oakville, Ont). Blood was drawn 2 hrs later for determination of plasma TNFα by ELISA. Assay 7) In vitro Mulitple Myeloma (MM) assay.” left out, “exclusion.” for “exclusion. The lines RPMI 8226 and U266 were plated at a density of 1×10^6 cells/mL in 250 μL of medium with various concentrations of the test compound. At day 4, the medium of each culture was replaced by fresh medium containing the same concentration of test compound.”

Compound	Assay 6: Mouse endotoxemia model, desired activity
Cc1cc(OC(=O)C(CC(=O)O)NC(=O)CCC(=O)O)cc2c1[C@]1(C)CCC3C(C)(C)CCC[C@]3(C)[C@H]1C2 (stereo partly drawn) [Compound 114]	+

What follows are compounds tested on MM cell lines (assay: In vitro Multiple Myeloma (MM) assay (Assay 7)). Conditions: viable cell number by trypan blue; [3H]-thymidine. Also: key: a ‘+’ indicates a positive result for desired activity; a ‘−’ indicates a negative result for desired activity.
Format: cell-based
Protocol: as §1

Compound	Assay 7: In vitro Multiple Myeloma (MM) assay, desired activity
Cc1cc2c(cc1O)C[C@@H]1[C@@]3(C)CCCC(C)(C)[C@@H]3CC[C@@]21C [Compound 101]	+
Cc1cc(OP(=O)(O)O)cc2c1[C@]1(C)CCC3C(C)(C)CCC[C@]3(C)[C@H]1C2 (stereo partly drawn) [Compound 109]	+
CC1(C)CCC[C@]2(C)[C@H]3Cc4cc(O)cc(O)c4[C@]3(C)CC[C@@H]12 [Compound 115]	+
COc1cc(O)cc2c1[C@]1(C)CC[C@H]3C(C)(C)CCC[C@]3(C)[C@H]1C2 [Compound 117]	+
COc1ccc2c(c1O)C[C@@H]1[C@@]3(C)CCCC(C)(C)[C@@H]3CC[C@@]21C [Compound 118]	+
CC1(C)CCC[C@]2(C)[C@H]3Cc4cc(O)ccc4[C@]3(C)CC[C@@H]12 [Compound 121]	+
Cc1cc(O)c2c(c1)C[C@@H]1[C@@]3(C)CCCC(C)(C)[C@@H]3CC[C@@]21C [Compound 122]	+
Cc1cc(O)cc2c1[C@]1(C)CCC3C(C)(C)CCC[C@]3(C)[C@@H]1C2 (stereo partly drawn) [Compound 124]	+
Cc1cc(O)cc2c1[C@@]1(C)CCC3C(C)(C)CCC[C@]3(C)[C@H]1C2 (stereo partly drawn) [Compound 125]	+

Source: US20100323990A1, “SHIP 1 MODULATOR PRODRUGS” (THE UNIVERSITY OF BRITISH COLUMBIA, priority 2006, published 2010)
